Patent publication US8883437B2, “Nitroreductase enzymatic substrates” (bioMérieux S.A., priority 2010, dated 2014)

Columns and labels:
E. cloacae NCTC 11936 = test: Nitroreductase substrate in Columbia medium, growth and colony color; type: cell-based; conditions: 40 mg substrate in 400 ml Columbia medium, 24 hours at 37° C., colonies examined visually
Protocol: (§1) 40 mg of substrate were dissolved in 4 ml of dimethylsulfoxide and added to 400 ml of previously autoclaved Columbia medium. The medium was distributed in Petri dishes 90 mm in diameter at the rate of 20 ml per dish. Ten strains of microorganisms obtained from collections and belonging to various species of bacteria and yeasts are inoculated as spots of about 10 000 colony forming units. The media are incubated for 24 hours at 37° C. and then the colonies formed are examined visually.

P. rettgeri NCTC 7475 = test: as above; type: cell-based; conditions: 40 mg substrate in 400 ml Columbia medium, 24 hours at 37° C., colonies examined visually
Protocol: as §1

- Color (E. cloacae NCTC 11936): Pale pink
- Color (P. rettgeri NCTC 7475): Pale pink
Structure (SMILES): C[N+]1=C(C=Cc2ccc([N+](=O)[O-])cc2)C(C)(C)c2ccccc21.[I-] [Iodinated 2-(4-nitrostyryl)-1,3,3-trimethylindolinium]
